This note sets out measurements from US8293768B2, “Organic compounds” (Novartis AG, priority 2006, dated 2012).

Usually pIC50 stands for the negative decadic logarithm of the IC50, by convention in mol/L. For orientation: melting point means the temperature, or range, at which the solid turns liquid.

Each structure is given as a SMILES string. pIC50: −log10 of the molar value.

The target of data set [1] is T1, stearoyl-CoA desaturase (SCD1) (Mus musculus, UniProt P13516).
T1 construct: Reactions are started by adding 50 μL of microsomes (1.25 mg/mL); from tissue; host or cells: liver microsomes of male ICR outbred mice on a high-carbohydrate, low fat diet
T1 sequence (P13516 1-355): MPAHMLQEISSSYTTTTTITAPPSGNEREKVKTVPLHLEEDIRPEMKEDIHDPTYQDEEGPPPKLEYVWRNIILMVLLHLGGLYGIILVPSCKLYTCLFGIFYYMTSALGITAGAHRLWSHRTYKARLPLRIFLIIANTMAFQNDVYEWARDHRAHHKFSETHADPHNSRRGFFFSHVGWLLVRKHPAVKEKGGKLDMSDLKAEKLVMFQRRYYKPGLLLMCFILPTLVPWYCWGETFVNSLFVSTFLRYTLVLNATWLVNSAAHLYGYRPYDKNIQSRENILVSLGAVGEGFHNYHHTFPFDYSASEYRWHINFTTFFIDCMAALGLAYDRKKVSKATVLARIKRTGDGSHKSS
As to the kind of experiment: SCD microsomal assay: release of 3H2O from [9,10-3H]stearoyl-CoA in mouse liver microsomes. Particulars: 15 min incubation at 25° C. The class given is biochemical. From the text: The identification of compounds of the invention as SCD inhibitors was readily accomplished using the SCD enzyme and microsomal assay procedure described in Shanklin J. and Summerville C., Proc. Natl. Acad. Sci. USA (1991), Vol. 88, pp. 2510-2514.
Measuring Stearoyl-CoA Desaturase Inhibition Activity of a Test Compound Using Mouse Liver Microsomes
The identification of compounds of the invention as SCD inhibitors was readily accomplished using the SCD microsomal assay procedure described in Shanklin J. and Summerville C., Proc. Natl. Acad. Sci. USA (1991), Vol. 88, pp. 2510-2514.
Male ICR outbread mice, on a high-carbohydrate, low fat diet, under light halothane (15% in mineral oil) anesthesia are sacrificed by exsanguination during periods of high enzyme activity. Livers are immediately rinsed with cold 0.9% NaCl solution, weighed and minced with scissors. All procedures are performed at 4° C. unless specified otherwise. Livers are homogenized in a solution (1/3 w/v) containing 0.25 M sucrose, 62 mM potassium phosphate buffer (pH 7.0), 0.15 M KCl, 15 mM N-acetyleysteine, 5 mM MgCl2, and 0.1 mM EDTA using 4 strokes of a Potter-Elvehjem tissue homogenizer. The homogenate is centrifuged at 10,400×g for 20 min to eliminate mitochondria and cellular debris. The supernatant is filtered through a 3-layer cheesecloth and centrifuged at 105,000×g for 60 min. The microsomal pellet is gently resuspended in the same homogenization solution with a small glass/teflon homogenizer and stored at −70° C. The absence of mitochondrial contamination is enzymatically assessed. The protein concentration is measured using bovine serum albumin as the standard.
Desaturase activity is measured as the release of ^3H2O from [9,10-^3H]stearoyl-CoA. Reactions per assay point conditions are as follows: 2 μL 1.5 mM stearoyl-CoA, 0.25 μL 1 mCi/mL ^3H stearoyl CoA, 10 μL 20 mM NADH, 36.75 μL 0.1 M PK buffer (K2HPO4/NaH2PO4, pH 7.2). The test compound or control solution is added in a 1 μL volume. Reactions are started by adding 50 μL of microsomes (1.25 mg/mL). The plates are mixed and after 15 min incubation on a heating block (25° C.), the reactions are stopped by the addition of 10 μL 60% PCA. An aliquot of 100 μL is then transferred to a filter plate pretreated with charcoal and the plate centrifuged at 4000 rpm for 1 minute. The flow through containing the ^3H2O released by the SCD1 desaturation reaction is added to scintillation fluid and the radioactivity measured in a Packard TopCount. The data is analysed to identify the IC50 for test compounds and reference compounds. […] The activity was defined in terms of % SCD enzyme activity remaining at the desired concentration of the test compound or as the IC50 concentration. The IC50 (affinity) of the example compounds toward the stearoyl-CoA desaturase is comprised between around […] and 0.0001 μM or between around 5 μM and 0.0001 μM or between around 1 μM and 0.0001 μM.
A general note: Liver microsomes are a subcellular fraction often used to study metabolism.

As for `CCN1CCN(c2nc(C)c(C(=O)NCc3cccnc3)s2)C1=O` [Example 9.39, 2-(3-ethyl-2-oxoimidazolidin-1-yl)-4-methyl-N-(pyridin-3-ylmethyl)thiazole-5-carboxamide], the melting point fell in the range of 163 to 164 °C. For the same molecule, the pIC50 in data set [1] is 6.91.

For `Cc1nc(-n2ccn(Cc3ccc(C(F)(F)F)cc3)c2=O)sc1C(=O)NCc1cccnc1` [Example 17.3, 4-methyl-2-(2-oxo-3-(4-(trifluoromethyl)benzyl)-2,3-dihydro-1H-imidazol-1-yl)-N-(pyridin-3-ylmethyl)thiazole-5-carboxamide], the melting point is 163 to 164 °C. For the same molecule, in data set [1], the pIC50 was 7.92. The molecule `Cc1nc(-n2cnn(CC(=O)Nc3ccc(Cl)cc3)c2=O)sc1C(=O)NCc1cccnc1` [Example 19.10, 2-(1-(2-(4-chlorophenylamino)-2-oxoethyl)-5-oxo-1H-1,2,4-triazol-4(5H)-yl)-4-methyl-N-(pyridin-3-ylmethyl)thiazole-5-carboxamide] came in with a melting point of 255 to 256 °C. Besides, the pIC50 in data set [1] is 6.24. `CCOC(=O)c1ccc(CN2CCN(c3nc(C)c(C(=O)NCc4ccccc4)s3)C2=O)cc1` [Example 23.2, ethyl 4-((3-(5-(benzylcarbamoyl)-4-methylthiazol-2-yl)-2-oxoimidazolidin-1-yl)methyl)benzoate] came in with a melting point of 118 to 120 °C. In data set [1], this molecule had a pIC50 of 7.21. For the molecule `Cc1nc(N2CCN(CC3CCCCO3)C2=O)sc1C(=O)NCc1ccccc1` (centres unmarked) [Example 23.6, N-benzyl-4-methyl-2-(2-oxo-3-((tetrahydro-2H-pyran-2-yl)methyl)imidazolidin-1-yl)thiazole-5-carboxamide], the pIC50 in data set [1] is 6.31.

With `O=C(NCc1cccnc1)c1sc(N2CCN(Cc3ccc(F)cc3)C2=O)nc1C(F)(F)F` [Example 26.1, 2-(3-(4-fluorobenzyl)-2-oxoimidazolidin-1-yl)-N-(pyridin-3-ylmethyl)-4-(trifluoromethyl)thiazole-5-carboxamide], the melting point was 161 to 162 °C. In data set [1], this molecule had a pIC50 of 7.41. For the molecule `Cc1nc(N2CCN(Cc3ccccc3)C2=N)sc1C(=O)NCc1ccccc1` [Example 27.3, N-benzyl-2-(3-benzyl-2-iminoimidazolidin-1-yl)-4-methylthiazole-5-carboxamide], the melting point fell in the range of 125 to 126 °C. Besides, the pIC50 in data set [1] was 7.60. For `Cc1nc(N2CCN(Cc3ccccn3)C2=O)sc1C(=O)NCc1cccnc1` [Example 32.8, 4-methyl-2-(2-oxo-3-(pyridin-2-ylmethyl)imidazolidin-1-yl)-N-(pyridin-3-ylmethyl)thiazole-5-carboxamide], in that order: 58 to 61 °C and 6.57. For `Cc1nc(N2CCN(Cc3ccc(C(F)(F)F)cc3)C2=O)sc1-c1ccno1` [Example 38.1, 1-(5-(isoxazol-5-yl)-4-methylthiazol-2-yl)-3-(4-(trifluoromethyl)benzyl)imidazolidin-2-one], in that order: 153 to 154 °C and 5.91. On to `Cc1noc(-c2sc(N3CCN(Cc4ccc(C(F)(F)F)cc4)C3=O)nc2C)n1` [Example 44, 1-(4-methyl-5-(3-methyl-1,2,4-oxadiazol-5-yl)thiazol-2-yl)-3-(4-(trifluoromethyl)benzyl)imidazolidin-2-one], for which the melting point was in the range of 163 to 164 °C. The molecule also gave a pIC50 in data set [1] of 6.82.

Turning to `Cc1nc(N2CCN(Cc3ccc(C(F)(F)F)cc3)C2=O)sc1Br` [Example 45, 1-(5-bromo-4-methylthiazol-2-yl)-3-(4-(trifluoromethyl)benzyl)imidazolidin-2-one], the melting point fell in the range of 107 to 108 °C. In data set [1], this molecule showed a pIC50 of 6.34.

`Cc1cc(N2CCN(Cc3ccc(F)cc3)C2=O)sc1C(=O)NC1Cc2ccccc2C1` [Example 55.8, N-(2,3-dihydro-1H-inden-2-yl)-5-(3-(4-fluorobenzyl)-2-oxoimidazolidin-1-yl)-3-methylthiophene-2-carboxamide] had a pIC50 in data set [1] of 7.57. Regarding `Cc1cc(N2CCN(Cc3ccc(F)cc3)C2=O)sc1-c1nc(Cc2ccccc2)c[nH]1` [Example 60, 1-(5-(4-benzyl-1H-imidazol-2-yl)-4-methylthiophen-2-yl)-3-(4-fluorobenzyl)imidazolidin-2-one], the pIC50 in data set [1] is 6.37.
